# Calls of active or inactive are those of the source. The calls are words filed in the database; no cut-off is given here.
# Experiments:
# [1] = test system: SJSA-1; assay: Cytotoxicity against human SJSA-1 cells incubated for 72 hrs in presence of 10% FBS by MTT assay; conditions: SJSA-1, 72 h
# [2] = Solubility of the compound in aqueous solution at pH 7.5 incubated for 1 hr by spectrophotometric analysis; type: physicochemical
# [3] = Induction of cell cycle arrest in human CD34+ cells assessed as accumulation at S phase at 0.1 uM incubated for 24 hrs by flow cytometry (reference value: 27.5 +/- 5.8%); type: toxicity, cell-based; conditions: cd34-positive (myeloid/lymphoid) cell
# [4] = Induction of cell cycle arrest in human CD34+ cells assessed as accumulation at S phase at 1 uM incubated for 24 hrs by flow cytometry (reference value: 27.5 +/- 5.8%); type: toxicity, cell-based; conditions: cd34-positive (myeloid/lymphoid) cell
# [5] = Induction of cell cycle arrest in human CD34+ cells assessed as accumulation at S phase at 2.5 uM incubated for 24 hrs by flow cytometry (reference value: 27.5 +/- 5.8%); type: toxicity, cell-based; conditions: cd34-positive (myeloid/lymphoid) cell
# [6] = test system: Fibroblast; assay: Protection against chemotherapy-induced apoptosis in human fibroblast assessed as decrease in caspase-3/7 level preincubated for 16 hrs followed by carboplatin addition measured after 32 hrs; type: functional, cell-based; conditions: dose 4.6-10 µM, time 48.0 hrs
# [7] = test system: Fibroblast; assay: Protection against apoptosis in human fibroblast assessed as decrease in chemotherapy-induced caspase-3/7 level preincubated for 16 hrs followed by etoposide addition measured after 32 hrs; type: functional, cell-based; conditions: dose 4.6-10 µM, time 48.0 hrs
# [8] = test system: Fibroblast; assay: Protection against chemotherapy-induced apoptosis in human fibroblast assessed as decrease in caspase-3/7 level preincubated for 16 hrs followed by paclitaxel addition measured after 32 hrs; type: functional, cell-based; conditions: dose 4.6-10 µM, time 48.0 hrs
# [9] = test system: Fibroblast; assay: Protection against chemotherapy-induced apoptosis in human fibroblast assessed as decrease in caspase-3/7 level preincubated for 16 hrs followed by vinblastine addition measured after 32 hrs; type: functional, cell-based; conditions: dose 4.6-10 µM, time 48.0 hrs
# [10] = test system: BT-474; assay: […] chemotherapy-induced apoptosis in human BT-474 cells assessed as decrease in caspase-3/7 level at 4.6 to 10 uM preincubated for 16 hrs followed by paclitaxel addition measured after 32 hrs; type: functional, cell-based; conditions: dose 4.6-10 µM, time 48.0 hrs
# [11] = test system: SJSA-1; assay: Antitumor activity against human SJSA-1 cells xenografted in athymic nu/nu mouse […] assessed as tumor growth inhibition administered intravenously twice a week measured for 15 days; type: functional, cell-based; conditions: dose 5-20 mg/kg, route iv, time 15.0 day
# [12] = test system: CTG-0449; assay: Antitumor activity against patient-derived human CTG-0449 cells xenografted in athymic nu/nu mouse model of AML assessed as tumor growth inhibition administered intravenously twice a week measured for 20 days; type: functional, cell-based; conditions: dose 10-20 mg/kg, route iv, time 20.0 day
# [13] = test system: MCF7; assay: Antitumor activity against human MCF7 cells xenografted in athymic nude BALB/c mouse assessed as tumor regression at 20 mg/kg, iv measured upto 48 hrs by immunohistochemical analysis; type: functional, organism-based
# [14] = test system: Bone marrow cell; assay: Protection against cell cycle arrest at S phase in bone marrow cells of C57BL/6 mouse at 10 mg/kg, iv measured for 8 hrs by FACS analysis; type: functional, organism-based
# [15] = test system: Bone marrow cell; assay: Upregulation of Puma mRNA level in bone marrow cells of C57BL/6 mouse at 10 mg/kg, iv measured for 24 hrs by qRT-PCR analysis; type: functional, organism-based
# [16] = test system: Bone marrow cell; assay: Upregulation of Noxa mRNA level in bone marrow cells of C57BL/6 mouse at 10 mg/kg, iv measured for 24 hrs by qRT-PCR analysis; type: functional, organism-based
# [17] = test system: Bone marrow cell; assay: Downregulation of cPARP expression level in bone marrow cells of C57BL/6 mouse at 2.4 mg/kg, iv administered every 8 hrs measured for 16 hrs by immunohistochemical analysis; type: functional, organism-based
# [18] = test system: Mus musculus; assay: Protection against topotecan-induced epithelium hypertrophy in gastrointestinal tract of C57BL/6 mouse at 2.4 mg/kg administered on day 0 to 4 and co-administered 30 mins prior to topotecan on day 1 to 4 followed by topotecan administration on day 5 measured on day 9 by H&E staining based analysis; type: functional, organism-based; conditions: time 9.0 day
# [19] = test system: Mus musculus; assay: Protection against topotecan-induced epithelium hyperplasia in gastrointestinal tract of C57BL/6 mouse at 2.4 mg/kg administered on day 0 to 4 and co-administered 30 mins prior to topotecan on day 1 to 4 followed by topotecan administration on day 5 measured on day 9 by H&E staining based analysis; type: functional, organism-based; conditions: time 9.0 day
# [20] = test system: Mus musculus; assay: Protection against topotecan-induced crypt loss in gastrointestinal tract of C57BL/6 mouse at 2.4 mg/kg administered on day 0 to 4 and co-administered 30 mins prior to topotecan on day 1 to 4 followed by topotecan administration on day 5 measured on day 9 by H&E staining based analysis; type: functional, organism-based; conditions: time 9.0 day
# [21] = test system: MC-38; assay: Antitumor activity against mouse MC38 cells allografted in C57BL/6 mouse assessed as reduction in tumor volume at 8 mg/kg administered on day 0 to 4 and co-administered 30 mins prior to topotecan on day 1 to 4 followed by topotecan administration on day 5 measured for 40 days; type: functional, organism-based; conditions: time 40.0 day
# [22] = test system: NCI-H69; assay: Antitumor activity against human NCI-H69 cells xenografted in athymic nu/nu mouse assessed as reduction in tumor volume at 8 mg/kg administered on day 0 to 4 and co-administered 30 mins prior to topotecan on day 1 to 4 followed by topotecan administration on day 5 measured for 60 days; type: functional, organism-based; conditions: time 60.0 day
# [23] = AUC (all) in mouse at 5 mg/kg by LC-MS/MS analysis; type: ADME, organism-based; design: dose 5 mg/kg; conditions: in vivo
# [24] = Clearance in mouse at 5 mg/kg by LC-MS/MS analysis; type: ADME, organism-based; conditions: in vivo
# [25] = Cmax in rat at 5 mg/kg by LC-MS/MS analysis; type: ADME, organism-based; design: dose 5 mg/kg; conditions: in vivo
# [26] = Clearance in rat at 5 mg/kg by LC-MS/MS analysis; type: ADME, organism-based; conditions: in vivo
# [27] = Cmax in rat at 10 mg/kg by LC-MS/MS analysis; type: ADME, organism-based; design: dose 10 mg/kg; conditions: in vivo
# [28] = Half life in rat at 10 mg/kg by LC-MS/MS analysis; type: ADME, organism-based; conditions: in vivo
# [29] = Cmax in cynomolgous monkey at 5 mg/kg by LC-MS/MS analysis; type: ADME, organism-based, Macaca fascicularis; design: dose 5 mg/kg; conditions: cynomolgus monkey, in vivo
# [30] = Half life in cynomolgous monkey at 5 mg/kg by LC-MS/MS analysis; type: ADME, organism-based, Macaca fascicularis; conditions: cynomolgus monkey, in vivo
# [31] = Plasma protein binding in rat at 2 to 50 uM; type: ADME, cell-free; conditions: dose 2-50 µM, read-out: PPB (converted)
# [32] = Plasma protein binding in monkey at 2 to 50 uM; type: ADME, cell-free, Macaca mulatta; conditions: rhesus monkey, dose 2-50 µM, read-out: PPB (converted)
# [33] = Plasma protein binding in rat at 250 uM; type: ADME, cell-free; conditions: read-out: PPB (converted)
# [34] = Drug excretion in bile-duct cannulated rat assessed as ALRN-8714 metabolite elimination at 10 mg/kg, iv measured for 8 hrs by LC-MS/MS analysis; type: ADME, organism-based; conditions: in vivo
# [35] = Drug uptake in tumor of athymic nu/nu mouse xenografted with human SJSA-1 cells assessed as AUC (0 to 24 hrs) of metabolite ALRN-8714 at 25 mg/kg, iv measured for 24 hrs by LC-MS-MS analysis; type: ADME, organism-based, Neoplasm; design: dose 25 mg/kg, time 24 hrs, route iv; conditions: in vivo
# [36] = AUC (0 to 24 hrs) in tumor of athymic nu/nu mouse xenografted with human SJSA-1 cells at 25 mg/kg, iv measured for 24 hrs by LC-MS-MS analysis; type: ADME, organism-based, Neoplasm; design: dose 25 mg/kg, time 24 hrs, route iv; conditions: in vivo
# [37] = Toxicity in monkey assessed as NOAEL administered twice weekly for 4 weeks; design: species or system Macaca mulatta; conditions: rhesus monkey, in vivo
compound,measurement,setting,value
CC(=O)N[C@@H](CC(C)C)C(=O)N[C@H](C(=O)N[C@@H](Cc1ccccc1)C(=O)N[C@]1(C)CCCCCC/C=C/CCC[C@@](C)(C(=O)N[C@@H](C)C(=O)N[C@@H](C)C(=O)N[C@@H](C)C(=O)N[C@@H](C)C(=O)N[C@@H](C)C(=O)N[C@H](C)C(N)=O)NC(=O)[C@H](CC(C)C)NC(=O)[C@H](CCC(N)=O)NC(=O)[C@H](C)NC(=O)[C@H](Cc2c[nH]c3ccccc23)NC(=O)[C@H](Cc2ccc(O)cc2)NC(=O)[C@H](CCC(=O)O)NC1=O)[C@@H](C)O,EC50,[1],300 nM
same,solubility at 1 h,[2],≤ 75 µg/mL
same,Activity,[3],21.35%
same,Activity,[4],4.23%
same,Activity,[5],0.5%
same,Activity,[6],Dose-Dependent Effect
same,Activity,[7],Dose-Dependent Effect
same,Activity,[8],Dose-Dependent Effect
same,Activity,[9],Dose-Dependent Effect
same,Activity,[10],inactive
same,Activity,[11],Dose-Dependent Effect
same,Activity,[12],Dose-Dependent Effect
same,Activity,[13],inactive
same,Activity,[14],Active
same,Activity,[15],Active
same,Activity,[16],Active
same,Activity,[17],Active
same,Activity,[18],Active
same,Activity,[19],Active
same,Activity,[20],Active
same,Activity,[21],Active
same,Activity,[22],Active
same,AUC,[23],450 µg·h/mL
same,clearance,[24],0.183 mL/min/kg
same,Cmax,[25],95.9 µg/mL
same,clearance,[26],0.4 mL/min/kg
same,Cmax,[27],186 µg/mL
same,half-life,[28],3.8 h
same,Cmax,[29],137 µg/mL
same,half-life,[30],4.9 h
same,fraction unbound at up to 50 µM,[31],0.08
same,fraction unbound at up to 50 µM,[32],0.08
same,fraction unbound at 250 µM,[33],0.02
same,Drug excretion,[34],Active
same,AUC,[35],128 µg·h/g
same,AUC,[36],1 µg·h/g
same,NOAEL at 672 h,[37],5 mg/kg
